According to US10259808B2 (Genentech, Inc., priority 2015, dated 2019):
Where a name gives a salt, the structure may show the parent alone. Read-outs that look alike come from different tables or passages of the source.

Target: T1, RORc ligand binding domain (Homo sapiens, UniProt P51449)
T1 sequence (P51449 269-508 limits assumed): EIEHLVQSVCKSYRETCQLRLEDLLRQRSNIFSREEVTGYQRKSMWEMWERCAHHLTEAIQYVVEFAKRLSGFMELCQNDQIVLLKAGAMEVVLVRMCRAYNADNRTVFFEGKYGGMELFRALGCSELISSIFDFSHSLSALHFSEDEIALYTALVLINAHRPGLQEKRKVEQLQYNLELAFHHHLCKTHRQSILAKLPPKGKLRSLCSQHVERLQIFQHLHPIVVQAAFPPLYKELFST
Experiment: In vitro RORc ligand binding assay (25-[3H]hydroxycholesterol displacement)

IC50	IC50 (IC50 values for RORc)	SMILES
23.6 nM		C[C@H]1CC[C@H](c2ccccc2)S(=O)(=O)N1Cc1cc(F)c(C2(NCc3nnc[nH]3)CCOCC2)cc1F [Example 92, 4-[2,5-difluoro-4-[[(3S,6R)-3-methyl-1,1-dioxo-6-phenyl-thiazinan-2-yl]methyl]phenyl]-N-(4H-1,2,4-triazol-3-ylmethyl)tetrahydropyran-4-amine]
32.5 nM		C[C@H]1CC[C@H](c2ccccc2)S(=O)(=O)N1Cc1ccc(C2(C(=O)NCc3cn[nH]c3)CCOCC2)cc1F [Example 17, 4-[3-fluoro-4-[[(3S,6R)-3-methyl-1,1-dioxo-6-phenyl-thiazinan-2-yl]methyl]phenyl]-N-(1H-pyrazol-4-ylmethyl)tetrahydropyran-4-carboxamide]
26.6 nM		C[C@H]1CC[C@H](c2ccccc2)S(=O)(=O)N1Cc1ccc(C2(c3nnc[nH]3)CCOCC2)cc1F [Example 46, (3S,6R)-2-[[2-fluoro-4-[4-(4H-1,2,4-triazol-3-yl)tetrahydropyran-4-yl]phenyl]methyl]-3-methyl-6-phenyl-thiazinane 1,1-dioxide]
82.6 nM		C[C@H]1CC[C@H](c2ccccc2)S(=O)(=O)N1Cc1cc(F)c(C2(NCc3ccn(C)n3)CCOCC2)cc1F [Example 91, 4-[2,5-difluoro-4-[[(3S,6R)-3-methyl-1,1-dioxo-6-phenyl-thiazinan-2-yl]methyl]phenyl]-N-[(1-methylpyrazol-3-yl)methyl]tetrahydropyran-4-amine]
6.4 nM		C[C@H]1CC[C@H](c2ccccc2)S(=O)(=O)N1Cc1cc(F)c(C2(NCc3cocn3)CCOCC2)cc1F [Example 75, 4-[2,5-difluoro-4-[[(3S,6R)-3-methyl-1,1-dioxo-6-phenyl-thiazinan-2-yl]methyl]phenyl]-N-(oxazol-4-ylmethyl)tetrahydropyran-4-amine]
30.2 nM		Cc1nc(CNC2(c3ccc(CN4[C@@H](C)CC[C@H](c5ccccc5)S4(=O)=O)c(F)c3)CCOCC2)co1 [Example 78, 4-[3-fluoro-4-[[(3S,6R)-3-methyl-1,1-dioxo-6-phenyl-thiazinan-2-yl]methyl]phenyl]-N-[(2-methyloxazol-4-yl)methyl]tetrahydropyran-4-amine; hydrochloride]
14.3 nM		C[C@H]1CC[C@H](c2ccccc2)S(=O)(=O)N1Cc1ccc(C2(c3nc(C4CC4)no3)CCOCC2)cc1F [Example 23]
6.7 nM		C[C@H]1CC[C@H](c2ccccc2)S(=O)(=O)N1Cc1ccc(C2(NCc3cc[nH]n3)CCOCC2)cc1F [Example 63, 4-[3-fluoro-4-[[(3S,6R)-3-methyl-1,1-dioxo-6-phenyl-thiazinan-2-yl]methyl]phenyl]-N-(1H-pyrazol-3-ylmethyl)tetrahydropyran-4-amine]
173 nM		C[C@H]1CC[C@H](c2ccccc2)S(=O)(=O)N1Cc1ccc(C2(C(=O)NCc3cnccn3)CCOCC2)cc1F [Example 10]

Continued, compound first:

SMILES	IC50	IC50 (IC50 values for RORc)
C[C@H]1CC[C@H](c2ccccc2)S(=O)(=O)N1Cc1cc(F)c(C2(C(=O)N3CCOCC3)CCOCC2)cc1F [Example 37, [4-[2,5-difluoro-4-[[(3S,6R)-3-methyl-1,1-dioxo-6-phenyl-thiazinan-2-yl]methyl]phenyl]tetrahydropyran-4-yl]-morpholino-methanone]	106 nM	
C[C@H]1CC[C@H](c2ccccc2)S(=O)(=O)N1Cc1cc(F)c(C2(c3c[nH]c(=O)o3)CC(O)C2)cc1F (mixture of isomers) [Example 177, 5-[1-[2,5-difluoro-4-[[rac-(3S,6R)-3-methyl-1,1-dioxo-6-phenyl-thiazinan-2-yl]methyl]phenyl]-3-hydroxy-cyclobutyl]-3H-oxazol-2-one]		4.3 nM
C[C@H]1CC[C@H](c2ccccc2)S(=O)(=O)N1Cc1cc(F)c([C@]2([C@@H](O)Cc3ncn[nH]3)C[C@](C)(O)C2)cc1F (racemic) [Example 170, 3-[2,5-difluoro-4-[[rac-(3S,6R)-3-methyl-1,1-dioxo-6-phenyl-thiazinan-2-yl]methyl]phenyl]-1-methyl-3-[rac-(1S)-1-hydroxy-2-(1H-1,2,4-triazol-5-yl)ethyl]cyclobutanol]	29.5 nM	
C[C@H]1CC[C@H](c2ccccc2)S(=O)(=O)N1Cc1cc(F)c(C2(c3n[nH]c(=O)o3)CC2)cc1F [Example 121, 5-[1-[2,5-difluoro-4-[[(3S,6R)-3-methyl-1,1-dioxo-6-phenyl-thiazinan-2-yl]methyl]phenyl]cyclopropyl]-3H-1,3,4-oxadiazol-2-one]	19.5 nM	
C[C@H]1CC[C@H](c2ccccc2)S(=O)(=O)N1Cc1cc(F)c([C@]2(c3c[nH]c(=O)o3)C[C@@](O)(C3CC3)C2)cc1F [Example 165, 5-[3-cyclopropyl-1-[2,5-difluoro-4-[[(3S,6R)-3-methyl-1,1-dioxo-6-phenyl-thiazinan-2-yl]methyl]phenyl]-3-hydroxy-cyclobutyl]-3H-oxazol-2-one]	6.7 nM	
C[C@H]1CC[C@H](c2ccccc2)S(=O)(=O)N1Cc1cc(F)c([C@]2(NC(=O)c3csnn3)C[C@](C)(O)C2)cc1F (racemic) [Example 181, N-[1-[2,5-difluoro-4-[[rac-(3S,6R)-3-methyl-1,1-dioxo-6-phenyl-thiazinan-2-yl]methyl]phenyl]-3-hydroxy-3-methyl-cyclobutyl]thiadiazole-4-carboxamide]	13 nM	
Cc1cc(N)nn1C(=O)C1(c2ccc(CN3[C@@H](C)CC[C@H](c4ccccc4)S3(=O)=O)c(F)c2)CCOCC1 [Example 21, (3-amino-5-methyl-pyrazol-1-yl)-[4-[3-fluoro-4-[[(3S,6R)-3-methyl-1,1-dioxo-6-phenyl-thiazinan-2-yl]methyl]phenyl]tetrahydropyran-4-yl]methanone]	1.9 nM	
C[C@H]1CC[C@H](c2ccccc2)S(=O)(=O)N1Cc1cc(F)c(C2(c3n[nH]c(=O)o3)CCOCC2)cc1F [Example 58, 5-[4-[2,5-difluoro-4-[[(3S,6R)-3-methyl-1,1-dioxo-6-phenyl-thiazinan-2-yl]methyl]phenyl]tetrahydropyran-4-yl]-3H-1,3,4-oxadiazol-2-one]	6.6 nM	
C[C@H]1CC[C@H](c2ccccc2)S(=O)(=O)N1Cc1cc(F)c([C@]2(c3n[nH]c(=O)o3)C[C@@](C)(O)C2)cc1F [Example 127, cis-5-[1-[2,5-difluoro-4-[[(3S,6R)-3-methyl-1,1-dioxo-6-phenyl-thiazinan-2-yl]methyl]phenyl]-3-hydroxy-3-methyl-cyclobutyl]-3H-1,3,4-oxadiazol-2-one]	7.2 nM	
C[C@H]1CC[C@H](c2ccccc2)S(=O)(=O)N1Cc1cc(F)c([C@]2(Cn3cn[nH]c3=O)C[C@](C)(O)C2)cc1F (racemic) [Example 178, 4-[[1-[2,5-difluoro-4-[[rac-(3S,6R)-3-methyl-1,1-dioxo-6-phenyl-thiazinan-2-yl]methyl]phenyl]-3-hydroxy-3-methyl-cyclobutyl]methyl]-1H-l,2,4-triazol-5-one]	6.1 nM	
C[C@H]1CC[C@H](c2ccccc2)S(=O)(=O)N1Cc1cc(F)c([C@]2(c3n[nH]c(=O)o3)C[C@@](O)(C(F)(F)F)C2)cc1F [Example 149, trans 5-[1-[2,5-difluoro-4-[[(3S,6R)-3-methyl-1,1-dioxo-6-phenyl-thiazinan-2-yl]methyl]phenyl]-3-hydroxy-3-(trifluoromethyl)cyclobutyl]-3H-1,3,4-oxadiazol-2-one]	5.3 nM	
CO[C@]1(C)C[C@](c2n[nH]c(=O)o2)(c2cc(F)c(CN3[C@@H](C)CC[C@H](c4ccccc4)S3(=O)=O)cc2F)C1 [Example 156, trans 5-[1-[2,5-difluoro-4-[[(3S,6R)-3-methyl-1,1-dioxo-6-phenyl-thiazinan-2-yl]methyl]phenyl]-3-methoxy-3-methyl-cyclobutyl]-3H-1,3,4-oxadiazol-2-one]	4 nM	
C[C@H]1CC[C@H](c2ccccc2)S(=O)(=O)N1Cc1cc(F)c([C@]2(c3nn(C)c(=O)o3)C[C@](C)(O)C2)cc1F (racemic) [Example 167]		19.2 nM
C[C@H]1CC[C@H](c2ccccc2)S(=O)(=O)N1Cc1cc(F)c(C2(c3nnc[nH]3)CC(=O)C2)cc1F [Example 113, 3-[2,5-difluoro-4-[[(3S,6R)-3-methyl-1,1-dioxo-6-phenyl-thiazinan-2-yl]methyl]phenyl]-3-(4H-1,2,4-triazol-3-yl)cyclobutanone]	8.1 nM	
C[C@H]1CC[C@H](c2ccccc2)S(=O)(=O)N1Cc1ccc(C2(C(=O)NC3(C)COC3)CCOCC2)cc1F [Example 9, 4-[3-fluoro-4-[[(3S,6R)-3-methyl-1,1-dioxo-6-phenyl-thiazinan-2-yl]methyl]phenyl]-N-(3-methyloxetan-3-yl)tetrahydropyran-4-carboxamide]	144 nM	
C[C@H]1CC[C@H](c2ccccc2)S(=O)(=O)N1Cc1cc(F)c(C2(C(=O)N3CC[C@H](O)C3)CCOCC2)cc1F [Example 34, [4-[2,5-difluoro-4-[[(3S,6R)-3-methyl-1,1-dioxo-6-phenyl-thiazinan-2-yl]methyl]phenyl]tetrahydropyran-4-yl]-[(3S)-3-hydroxypyrrolidin-1-yl]methanone]	98.5 nM	
C[C@H]1CC[C@H](c2ccccc2)S(=O)(=O)N1Cc1cc(F)c(C2(NC(=O)C3CCOC3)COC2)cc1F (stereo in doubt) [Example 129, N-[3-[2,5-difluoro-4-[[(3S,6R)-3-methyl-1,1-dioxo-6-phenyl-thiazinan-2-yl]methyl]phenyl]oxetan-3-yl]tetrahydrofuran-3-carboxamide]	32.3 nM	
C[C@H]1CC[C@H](c2ccccc2)S(=O)(=O)N1Cc1cc(F)c(C2(NC[C@@H]3CCC(=O)N3)COC2)cc1F [Example 111, (5S)-5-[[[3-[2,5-difluoro-4-[[(3S,6R)-3-methyl-1,1-dioxo-6-phenyl-thiazinan-2 yl]methyl]phenyl]oxetan-3-yl]amino]methyl]pyrrolidin-2-one]	89.8 nM	
